Measured values as given in publication PMC10294832, “Investigation of Naphthyl–Polyamine Conjugates as Antimicrobials and Antibiotic Enhancers” (Antibiotics, 2023).
“And” between values parts separate entries of the source, which are not always exact repeats. Identical values can stand only once. Like-named read-outs stand apart in the source and are kept apart here.

What was measured:
[1] = test system: S. aureus (ATCC 25,923 or ATCC 29213); experiment: Antimicrobial MIC, S. aureus; format: cell-based, Staphylococcus aureus; settings: Staphylococcus aureus, mean (n = 3)
Protocol: (§1) The susceptibility of bacterial strains S. aureus (ATCC 25,923 or 29213), E. coli (ATCC 25922), and P. aeruginosa (ATCC 27853) to antibiotics and compounds was determined according to previously reported protocols. Additional antimicrobial evaluation against MRSA (ATCC 43300), Klebsiella pneumoniae (ATCC 700603), Acinetobacter baumannii (ATCC 19606), Candida albicans (ATCC 90028), and Cryptococcus neoformans (ATCC 208821) was undertaken at the Community for Open Antimicrobial Drug Discovery at The University of Queensland (Australia) according to their standard protocols as reported previously.

MRSA (ATCC 43300) = experiment: Antimicrobial MIC, MRSA; format: cell-based, methicillin-resistant Staphylococcus aureus; settings: MRSA (ATCC 43300), mean (n = 2), read-out: MIC MRSA
Protocol: as §1

[2] = test system: P. aeruginosa (PAO1 or ATCC 27853); experiment: Antimicrobial MIC, P. aeruginosa; format: cell-based; settings: Pseudomonas aeruginosa; P. aeruginosa (PAO1 or ATCC 27853); mean (n = 3); read-out: MIC P. a
Protocol: as §1

E. coli (ATCC 25922) [3] = experiment: Antimicrobial MIC, E. coli; format: cell-based, Escherichia coli; settings: Escherichia coli, ATCC25922, E. coli (ATCC 25922); mean (n = 2)
Protocol: as §1

[4] = test system: K. pneumoniae (ATCC 700603); experiment: Antimicrobial MIC, K. pneumoniae; format: cell-based; settings: Klebsiella pneumoniae, ATCC700603, mean (n = 2)
Protocol: as §1

[5] = test system: A. baumannii (ATCC 19606); experiment: Antimicrobial MIC, A. baumannii; format: cell-based, Acinetobacter baumannii; settings: mean (n = 2)
Protocol: as §1

C. albicans (ATCC 90028) = experiment: Antifungal MIC, C. albicans; format: cell-based; settings: Candida albicans, ATCC90028, mean (n = 2)
Protocol: as §1

[6] = test system: C. neoformans (ATCC 208821); experiment: Antifungal MIC, C. neoformans; format: cell-based, Cryptococcus neoformans; settings: mean (n = 2)
Protocol: as §1

[7] = test system: P. aeruginosa (ATCC 27853); experiment: Enhancement of doxycycline activity; format: cell-based, Pseudomonas aeruginosa; settings: for Dox/P.a: concentration required to restore doxycycline activity (combination MIC): doxycycline fixed at 4.5 µM (2 µg/mL), P. aeruginosa (ATCC 27853); for Dox/P.a fold change: ratio between intrinsic MIC of test compound and combination MIC, doxycycline 4.5 µM, P. aeruginosa
E. coli (ATCC 25922) [8] = experiment: Enhancement of erythromycin activity; format: cell-based, Escherichia coli; settings: for Eryth/E.c: concentration required to restore erythromycin activity (combination MIC): erythromycin fixed at 10.9 µM (8 µg/mL), E. coli (ATCC 25922); for Eryth/E.c fold change: ratio between intrinsic MIC of test compound and combination MIC, erythromycin 10.9 µM, E. coli
Protocol: Restoring enhancer concentrations were determined using previously reported protocols.

Cytotoxicity assay = format: cell-based, human; settings: human, HEK293 human embryonic kidney cells, concentration at 50% cytotoxicity on HEK293 cells; mean (n = 2)
Protocol: Cytotoxicity assays were conducted using the protocols previously reported.

human red blood cells = experiment: Hemolytic assay; format: cell-based; settings: concentration at 10% hemolytic activity on human red blood cells; mean (n = 2)
Protocol: Hemolysis assays were conducted using the protocols previously reported.

[9] = Acinetobacter baumannii, ATCC19606, A. baumannii (ATCC 19606)
[10] = Cryptococcus neoformans, ATCC208821, C. neoformans (ATCC 208821)

Compound	melting point	MIC [1]	MIC (MRSA (ATCC 43300); Staphylococcus aureus)	MIC [2]	MIC (E. coli (ATCC 25922) [3])	MIC [4]	MIC [5, 9]	MIC (C. albicans (ATCC 90028))	MIC [6, 10]	Dox/P.a: concentration required to restore doxycycline activity (combination MIC) [7]	Dox/P.a fold change [7]	Eryth/E.c: concentration required to restore erythromycin activity (combination MIC) (E. coli (ATCC 25922) [8])	Eryth/E.c fold change (E. coli (ATCC 25922) [8])	IC50 (Cytotoxicity assay)	Hemolysis HC10 (human red blood cells)	MIC (MRSA (ATCC 43300))	MIC ([5]; A. baumannii (ATCC 19606))	MIC ([6]; C. neoformans (ATCC 208821))
O=C(O)CCC(=O)Nc1cccc2ccccc12 [Compound 9, 4-(Naphthalen-1-ylamino)-4-oxobutanoic Acid]	165 to 167 °C																	
O=C(O)CCC(=O)Nc1ccc(-c2ccccc2)cc1 [Compound 12, 4-([1,1’-Biphenyl]-4-ylamino)-4-oxobutanoic Acid]	> 230 °C																	
O=C(NCCCNCCCCNCCCNC(=O)c1cccc2ccccc12)c1cccc2ccccc12.O=C(O)C(F)(F)F.O=C(O)C(F)(F)F [Compound 17a, N^1,N^4-Bis(3-(1-naphthamido)propyl)butane-1,4-diaminium 2,2,2-trifluoroacetate]	238 to 239 °C	677 µM	> 43.3 µM	677 µM	677 µM	> 43.3 µM	> 43.3 µM	> 43.3 µM	> 43.3 µM	271 µM	2.5 fold	67.7 µM	10 fold					
O=C(NCCCNCCCCCCCCCCNCCCNC(=O)c1ccc2ccccc2c1)c1ccc2ccccc2c1.O=C(O)C(F)(F)F.O=C(O)C(F)(F)F [Compound 19e, N^1,N^10-Bis(3-(2-naphthamido)propyl)decane-1,10-diaminium 2,2,2-trifluoroacetate]		30 µM	1.22 µM	608 µM	122 µM	38.9 µM	38.9 µM	38.9 µM	4.86 µM	608 µM	1 fold	60.8 µM	2 fold	4.75 µM	>38.9 µM			
O=C(NCCCNCCCCCCCCCCCCNCCCNC(=O)c1ccc2ccccc2c1)c1ccc2ccccc2c1.O=C(O)C(F)(F)F.O=C(O)C(F)(F)F [Compound 19f, N^1,N^12-Bis(3-(2-naphthamido)propyl)dodecane-1,12-diaminium 2,2,2-trifluoroacetate]		100 µM	0.29 µM	300 µM	300 µM	> 37.6 µM	0.29 µM	> 37.6 µM	0.29 µM	300 µM	1 fold	300 µM	1 fold	> 37.6 µM	>37.6 µM	0.294 µM	0.294 µM	0.294 µM
O=C(CCC(=O)Nc1ccc2ccccc2c1)NCCCNCCCCCCNCCCNC(=O)CCC(=O)Nc1ccc2ccccc2c1.O=C(O)C(F)(F)F.O=C(O)C(F)(F)F [Compound 20b, N^1,N^6-Bis(3-(4-(naphthalen-2-ylamino)-4-oxobutanamido)propyl)hexane-1,6-diaminium 2,2,2-trifluoroacetate]		> 200 µM	> 35.2 µM	> 200 µM	50 µM	> 35.2 µM	> 35.2 µM	> 35.2 µM	35.2 µM	25 µM	> 8 fold	50 µM	1 fold	> 35.2 µM	>35.2 µM			
O=C(CCC(=O)Nc1ccc2ccccc2c1)NCCCNCCCCCCCNCCCNC(=O)CCC(=O)Nc1ccc2ccccc2c1.O=C(O)C(F)(F)F.O=C(O)C(F)(F)F [Compound 20c, N^1,N^7-Bis(3-(4-(naphthalen-2-ylamino)-4-oxobutanamido)propyl)heptane-1,7-diaminium 2,2,2-trifluoroacetate]		25 µM	2.2 µM	> 200 µM	25 µM	> 34.7 µM	> 34.7 µM	> 34.7 µM	≤ 0.27 µM	6.25 µM		12.5 µM	2 fold	> 34.7 µM	>34.7 µM			
O=C(CCC(=O)Nc1ccc2ccccc2c1)NCCCNCCCCCCCCNCCCNC(=O)CCC(=O)Nc1ccc2ccccc2c1.O=C(O)C(F)(F)F.O=C(O)C(F)(F)F [Compound 20d, N^1,N^8-Bis(3-(4-(naphthalen-2-ylamino)-4-oxobutanamido)propyl)octane-1,8-diaminium 2,2,2-trifluoroacetate]		13.3 µM	> 34.2 µM	> 107 µM	107 µM	> 34.2 µM	> 34.2 µM	> 34.2 µM	17.1 µM	53.4 µM	> 2 fold	26.7 µM	4 fold	> 34.2 µM	>34.2 µM			
O=C(CCC(=O)Nc1ccc2ccccc2c1)NCCCNCCCCCCCCCCNCCCNC(=O)CCC(=O)Nc1ccc2ccccc2c1.O=C(O)C(F)(F)F.O=C(O)C(F)(F)F [Compound 20e, N^1,N^10-Bis(3-(4-(naphthalen-2-ylamino)-4-oxobutanamido)propyl)decane-1,10-diaminium 2,2,2-trifluoroacetate]		12.9 µM	16.6 µM	518 µM	104 µM	> 33.2 µM	> 33.2 µM	> 33.2 µM	16.6 µM	104 µM	5 fold	13 µM and 13.0 µM	8 fold	> 33.2 µM	>33.2 µM			
